Measured values: patent US10400274B2, “Fluorogenic probes and their use in quantitative detection of target RNA sequences” (JAN BIOTECH, INC., priority 2016, dated 2019)

Legend:
[1] = system: synthetic HIV RNA targets; assay: qLDR probe set testing against synthetic HIV RNA targets; details: initial testing with synthetic HIV RNA targets
Experimental: The qLDR reaction contained optimized probe concentrations at 10-100 pM and a total reaction volume of 50 μL. The qLDR reaction for each probe set was optimized against the commensurate synthetic HIV RNA targets using fluorescence microscopy and fluorescence emission in a 96-well format in a desktop fluorometer, with readings normalized to background.

HIV RNA of ACH-2 cells = assay: HIV qLDR on PMA-activated ACH-2 cells in A3.01 cells (latent vs. active); format: cell-based; details: 10 ACH-2 cells in 10^6 A3.01 cells; PMA 1 μM for 0, 3, 8, 24 hr; FIG. 9
Experimental: For cell line testing (FIG. 9), ACH-2 and A3.01 cells were grown in T-75 flasks and plated at 1 mL per well in a 24-well culture plate in RPMI medium. After the wells reached 60% confluency, cells were activated for 0, 3, 8, and 24 hr with PMA (phorbal 12-myristate 13-acetate) at 1 μM final concentration per well. The experiment was performed such that each activation time endpoint represented the same total growth time. The activated ACH-2 cells were harvested from each well and counted. After preservation and shipping in 90% FBS/10% DMSO at −80° C., the cell suspensions were recounted, diluted and added at 10 cells into 10^6 A3.01 cells activated for the matching time period. HIV qLDR, using probes SEQ ID NO: 9/SEQ ID NO: 10 for 2 kb tat-rev transcripts, SEQ ID NO: 1/SEQ ID NO: 2 for 9 kb transcripts, and SEQ ID NO: 1/SEQ ID NO: 2 and SEQ ID NO: 5/SEQ ID NO: 6 for 4 kb transcripts, was performed on the cells and fluorometric readings in a 96-well plate format were normalized to background. […] Thus, the ratio of cell-based tat-rev to 4 kb/9 kb HIV RNA levels may be a useful measure of latent to active cell number.

HIV pol/protease region = assay: HIV qLDR compared with HIV RT-qPCR on human peripheral blood samples; format: cell-based; details: CD4+ T cells for qLDR, blood plasma for RT-qPCR; FIG. 11
Experimental: For human sample testing comparison with HIV RT-qPCR (FIG. 11), blood plasma was used for RT-qPCR and CD4+ T cells were used for qLDR. RT-qPCR was performed using primers and probe to the HIV gag-pol region, as described in Livak et al., 1995, for best comparison with HIV qLDR with probes SEQ ID NO: 1/SEQ ID NO: 2 to the HIV pol/protease region. HIV RNA was isolated from blood plasma samples prior to RT-qPCR. An RT-qPCR standard was prepared by in vitro transcription of a synthetic HIV T7 plasmid, and RNA copy number was determined using a standard curve generated with the RT-qPCR standard.

cellular HIV RNA = assay: HIV qLDR on CD4-enriched PBMC lysates from HIV- and HIV+ participants; format: cell-based, human; details: FIG. 10a-b; for detection of cellular HIV RNA in HIV+ HAART (latent) samples / detection of cellular HIV RNA in HIV- samples: CD4-enriched PBMC lysates, 20 mL blood; for detection between latent and HIV+ non-HAART (active) samples: including viremic participants and elite controllers
Experimental: For human sample testing (FIG. 10a-b) by HIV qLDR, CD4-enriched PBMC from HIV− and HIV+ participants were tested by the HIV qLDR probes SEQ ID NO: 9/SEQ ID NO: 10 for 2 kb tat-rev transcripts and SEQ ID NO: 5/SEQ ID NO: 6 for 9 kb and 4 kb transcripts. Lysates were tested from five individuals/class. Tests were performed in triplicate with 20 mL blood.

Q: Which results are given for “SEQ ID NO: 1/SEQ ID NO: 2: fluorogenic probe pair SEQ ID NO: 1 (Ald-1) and 2 (Ind), HIV-1 pol/protease, detects full length 9 kb RNA (chain 1 CCTGTATCTAATAGAGC; chain 2 TCTAATACTGTATCATCT; fluorogenic labels; Latent HIV-1 qLDR Oligonucleotide Probe; (1)..(1) Fluorogenic probe moiety attachment position on probe sequence; (18)..(18) Fluorogenic probe moiety attachment position on probe sequence)”?
A: detection efficiency [1]: comparable detection efficiency; change of fluorescence level through activation time course (HIV RNA of ACH-2 cells): marked increase; correlation of HIV qLDR results with HIV RT-PCR viremia results (HIV pol/protease region): closely correlated

Q: For “SEQ ID NO: 5/SEQ ID NO: 6: fluorogenic probe pair SEQ ID NO: 5 (Ald-2) and 6 (Ind), HIV-1 gp160/41, detects 4 kb spliced and 9 kb RNA (chain 1 ATAGTGCTTCCTGCT; chain 2 GTCATTGAGGCTGCG; fluorogenic labels; Latent HIV-1 qLDR Oligonucleotide Probe; (1)..(1) Fluorogenic probe moiety attachment position on probe sequence; (15)..(15) Fluorogenic probe moiety attachment position on probe sequence)”, which detection efficiency [1] is on record?
A: comparable detection efficiency

Q: And the “change of fluorescence level through activation time course” value (HIV RNA of ACH-2 cells)?
A: marked increase

Q: What about the “detection of cellular HIV RNA in HIV+ HAART (latent) samples” value (cellular HIV RNA) of the same substance?
A: successfully detected

Q: What about the “detection of cellular HIV RNA in HIV- samples” value (cellular HIV RNA) of the same substance?
A: not in HIV—samples

Q: And the “detection between latent and HIV+ non-HAART (active) samples” value (cellular HIV RNA)?
A: differential detection

Q: What does the source list for “SEQ ID NO: 9/SEQ ID NO: 10: fluorogenic PNA probe pair SEQ ID NO: 9 (Ald-1) and 10 (Ind), tat-rev, detects spliced 2 kb HIV-1 RNA (chain 1 CTTTG; chain 2 TGGGT; PNA; fluorogenic labels; Latent HIV-1 qLDR Oligonucleotide Probe; (1)..(1) Fluorogenic probe moiety attachment position on probe sequence; (1)..(5) Peptide nucleic acid 5′ Ald-CTTTG-DMLys-DMLys- CONH2; (1)..(5) Peptide nucleic acid 3′ Ind-TGGGT-DMLys-DMLys- CONH2; (5)..(5) Fluorogenic probe moiety attachment position on probe sequence)”?
A: detection efficiency [1]: comparable detection efficiency; change of fluorescence level through activation time course (HIV RNA of ACH-2 cells): relatively little increase; detection of cellular HIV RNA in HIV+ HAART (latent) samples (cellular HIV RNA): successfully detected; detection of cellular HIV RNA in HIV- samples (cellular HIV RNA): not in HIV—samples; detection between latent and HIV+ non-HAART (active) samples (cellular HIV RNA): differential detection
